Test results taken from US8178538B2, “Pyridazinones” (Hoffmann-La Roche Inc., priority 2008, dated 2012).

These compounds were tested against T1, PDE10A2 (Homo sapiens, UniProt Q9Y233) (assay: PDE10A2 inhibition, Scintillation Proximity Assay (SPA)). Conditions: catalytic domain of human PDE10A2 (S449-D789), 0.25 nM enzyme, 50 nM cGMP + 50 nM [3H]-cGMP, 30 minutes at room temperature.
T1 construct: residues serine 449 to aspartate 789; His6 (H6) with thrombin cleavage site (N, cleaved yes); made in house; host or cells: E. coli BL21(DE3) pLysS
Type: biochemical
Method: The following tests were carried out in order to determine the activity of the compounds of the present invention. PDE10 activity of the compounds of the present invention is determined using a Scintillation Proximity Assay (SPA)-based method similar to the one previously described (Fawcett, L. et al., Proc Natl Acad Sci USA (2000) 97(7):3702-3707).
PDE10A1 and PDE10A2 are two splice variants of PDE10A. There are these 2 splice variants known, which differ in the N-terminal part of the protein. The catalytic domains of PDE10A1 and PDE10A2 are identical. The assay for PDE10A2 described below is therefore also representative for PDE10A1 and also for PDE10A in general.
The PDE10A2 assay was performed in a two step procedure in 96-well micro titer plates. The reaction mixture of 80 μl contained 20 mM HEPES/10 mM MgCl2/[…] (pH 7.5), 50 nM cGMP (Sigma) and 50 nM [^3H]-cGMP (GE Healthcare), 0.25 nM PDE10A2 with or without a specific test compound. A range of concentrations of the potential inhibitor was used to generate data for calculating the concentration of inhibitor resulting in 50% of the effect (e.g. IC50, the concentration of the competitor inhibiting PDE10A2 activity 50%). Non-specific activity was tested without the enzyme. The reaction was initiated by addition of the substrate solution (cGMP and [^3H]-cGMP) and allowed to progress for 30 minutes at room temperature. The reaction was terminated by transferring 50 μl of the reaction mixture into an OptiPlate (Perkin Elmer) containing 25 μl of YSi-SPA scintillation beads (GE Healthcare) in 18 mM zinc sulphate solution (stop reagent). After 1 h under shaking, the plate was centrifuged one minute at 1000 rpm to allow beads to settle. Afterwards, radioactive counts were measured on a Perkin Elmer TopCount Scintillation plate reader.
The catalytic domain of human PDE10A2, residues serine 449 to aspartate 789, was amplified by PCR using cDNA (Origene) and the oligonucleotides 5′-GGGGACAAGTTT […]-3′ (SEQ ID NO. 1) (with AttB1 recombination site in bold and thrombin protease cleavage site in italics) and 5′-[…] GCTG-3′ (SEQ ID NO. 2) (with AttB2 recombination site in bold) which conferred Gateway recombination sites. The PCR product was used in a BP recombination reaction with pDONR221 to generate pENTR Thm-PDE10A2(S449-D789) which was DNA sequence verified and then used in an LR recombination reaction with a Gateway modified version of pET11a. The resulting expression vector, placT7.2H6-(gw1)-Thm-PDE10A2(S449-D789) was DNA sequence confirmed and transformed into E. coli strain BL21(DE3) pLysS and recombinant protein was produced in TB medium at 20° C. by induction to a final IPTG concentration of 0.5 mM at an optical density of 1.0 at 600 nm for 20 hours. About 30% of the protein was in the soluble fraction of the cell homogenate. The protein was purified using sequential chromatography on Ni-NTA and HiTrapQ/HiTrapS. After thrombin digest at room temperature a HiTrapChelating/HiTrap Benzamindin chromatography removed impurities, uncleaved protein and thrombin. Final purification of PDE10A2(S449-D789) was performed on a Superdex 75 size exclusion chromatography equilibrated with 25 mM HEPES pH 8.4, 0.15 M NaCl. The yield of pure protein was 2 mg/liter of culture volume is relatively low. The purity of the protein was >95%, monomeric and monodisperse as shown by SDS-PAGE, HPLC and analytical ultracentrifugation.

T1 sequence (Q9Y233 715-1055): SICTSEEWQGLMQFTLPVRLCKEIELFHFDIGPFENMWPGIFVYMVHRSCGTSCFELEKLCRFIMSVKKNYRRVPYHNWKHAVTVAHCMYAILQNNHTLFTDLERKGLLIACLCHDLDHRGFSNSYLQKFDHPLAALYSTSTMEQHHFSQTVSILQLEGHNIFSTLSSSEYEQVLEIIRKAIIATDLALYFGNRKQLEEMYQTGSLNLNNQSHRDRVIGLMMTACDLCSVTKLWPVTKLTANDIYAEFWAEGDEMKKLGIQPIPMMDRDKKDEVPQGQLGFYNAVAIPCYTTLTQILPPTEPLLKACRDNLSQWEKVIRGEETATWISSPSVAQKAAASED

IC50 [µM] | Compound
0.055 | CS(=O)(=O)c1cccc(-n2ccc(=O)c(-c3ccnn3-c3cccc(C#N)c3)n2)c1 [Example 94, 3-{5-[1-(3-Methanesulfonyl-phenyl)-4-oxo-1,4-dihydro-pyridazin-3-yl]-pyrazol-1-yl}-benzonitrile]
1.2 | COc1ccc(-c2csc(-n3nccc3-c3nn(-c4cccc(S(C)(=O)=O)c4)ccc3=O)n2)c(F)c1 [Example 95, 3-{2-[4-(2-Fluoro-4-methoxy-phenyl)-thiazol-2-yl]-2H-pyrazol-3-yl}-1-(3-methanesulfonyl-phenyl)-1H-pyridazin-4-one]
0.222 | O=c1ccn(-c2cccc(OC(F)F)c2)nc1-c1ccnn1-c1cccc(F)c1 [Example 98, 1-(3-Difluoromethoxy-phenyl)-3-[2-(3-fluoro-phenyl)-2H-pyrazol-3-yl]-1H-pyridazin-4-one]
0.105 | O=c1ccn(-c2ccc(OC(F)F)cc2)nc1-c1ccnn1-c1cccc(F)c1 [Example 100, 1-(4-Difluoromethoxy-phenyl)-3-[2-(3-fluoro-phenyl)-2H-pyrazol-3-yl]-1H-pyridazin-4-one]
0.037 | O=c1ccn(-c2ccc3c(c2)OC(F)(F)O3)nc1-c1ccnn1-c1ccc2c(c1)OCCO2 [Example 101, 1-(2,2-Difluoro-benzo[1,3]dioxol-5-yl)-3-[2-(2,3-dihydro-benzo[1,4]dioxin-6-yl)-2H-pyrazol-3-yl]-1H-pyridazin-4-one]
0.054 | CS(=O)(=O)c1cccc(-n2ccc(=O)c(-c3ccnn3-c3ccc(F)cc3F)n2)c1 [Example 105, 3-[2-(2,4-Difluoro-phenyl)-2H-pyrazol-3-yl]-1-(3-methanesulfonyl-phenyl)-1H-pyridazin-4-one]
0.04 | CS(=O)(=O)c1cccc(-n2ccc(=O)c(-c3ccnn3-c3cccc4c3OCO4)n2)c1 [Example 106, 3-(2-Benzo[1,3]dioxol-4-yl-2H-pyrazol-3-yl)-1-(3-methanesulfonyl-phenyl)-1H-pyridazin-4-one]
0.072 | O=c1ccn(-c2cccc(F)c2)nc1-c1ccnn1-c1ccc2c(c1)OCO2 [Example 109, 3-(2-Benzo[1,3]dioxol-5-yl-2H-pyrazol-3-yl)-1-(3-fluoro-phenyl)-1H-pyridazin-4-one]
0.082 | N#Cc1cccc(-n2nccc2-c2nn(-c3cccc4c3OCO4)ccc2=O)c1 [Example 114, 3-[5-(1-Benzo[1,3]dioxol-4-yl-4-oxo-1,4-dihydro-pyridazin-3-yl)-pyrazol-1-yl]-benzonitrile]
0.033 | O=c1ccn(-c2cccc(OC(F)F)c2)nc1-c1ccnn1-c1cc(F)ccc1F [Example 116, 1-(3-Difluoromethoxy-phenyl)-3-[2-(2,5-difluoro-phenyl)-2H-pyrazol-3-yl]-1H-pyridazin-4-one]
0.028 | CS(=O)(=O)c1cccc(-n2ccc(=O)c(-c3ccnn3-c3cccc(OC(F)(F)F)c3)n2)c1 [Example 122, 1-(3-Methanesulfonyl-phenyl)-3-[2-(3-trifluoromethoxy-phenyl)-2H-pyrazol-3-yl]-1H-pyridazin-4-one]
0.057 | Cc1cc(-n2nccc2-c2nn(-c3cccc(OC(F)(F)F)c3)ccc2=O)ccn1 [Example 124, 3-[2-(2-Methyl-pyridin-4-yl)-2H-pyrazol-3-yl]-1-(3-trifluoromethoxy-phenyl)-1H-pyridazin-4-one]
0.08 | N#Cc1cccc(-n2nccc2-c2nn(-c3cccc4c3OC(F)(F)O4)ccc2=O)c1 [Example 129, 3-{5-[1-(2,2-Difluoro-benzo[1,3]dioxol-4-yl)-4-oxo-1,4-dihydro-pyridazin-3-yl]-pyrazol-1-yl}-benzonitrile]
0.071 | Cc1cc(-n2nccc2-c2nn(-c3cccc(S(=O)(=O)N(C)C)c3)ccc2=O)ccn1 [Example 133, N,N-Dimethyl-3-{3-[2-(2-methyl-pyridin-4-yl)-2H-pyrazol-3-yl]-4-oxo-4H-pyridazin-1-yl}-benzenesulfonamide]
0.037 | O=c1ccn(-c2ccc(OC(F)(F)F)cc2)nc1-c1ccnn1-c1ccc(F)cc1 [Example 138, 3-[2-(4-Fluoro-phenyl)-2H-pyrazol-3-yl]-1-(4-trifluoromethoxy-phenyl)-1H-pyridazin-4-one]
